The conditions of series [1]: cited from earlier work.
Series [2] in a line: Distribution of calcitonin in sub-compartments of sheep blood in vitro. In kind it is in vitro ADME. Particulars: calcitonin treated group, 2.5 ng/ml; sum of all five compartments = 100 percent.
For series [3] the following is noted: cited from earlier work. The source holds these as a separate data set.
For series [4] the following is noted: cited from earlier work. This is another data set of the same source.

Several values for one entry are separate records, joined by “and”; a condition that tells them apart may be missing. Equal entries are not always repeated.

On to Calcitonin, for which the “sustained pharmacodynamic effects (duration)” value in series [1] was 18 to 22 h. For the same substance, in series [2], the “distribution of calcitonin associated with RBC” value is on record as “less than 8%”; the “distribution of calcitonin in plasma” value was around 30%; the “distribution of calcitonin on WBC-surface” value was ~30% and ~40%. Also, the half-life in series [3] was 40 to 60 min. Further, the bioavailability result in series [3] (parenteral delivery, various formulations) is on record as “up to 70%”. The plasma protein binding in series [4] was around 40%.
As to salmon Calcitonin, the elimination half-life in series [3] is 54 to 76 min.

Broadly, the half-life is the time needed for the level to fall by half in the phase considered.
